Measurements: publication PMC6480460, “Derivatives of the β-Crinane Amaryllidaceae Alkaloid Haemanthamine as Multi-Target Directed Ligands for Alzheimer’s Disease” (Molecules, 2019)
Like-named read-outs stand apart in the source and are kept apart here.

Key:
[1] = test system: A2780 (ovarian carcinoma); experiment: WST-1 cytotoxicity assay, A2780; assay type: cell-based; settings: Homo sapiens, c = 10 μM, 48 h, percent of proliferation of untreated control cells, read-out: Cell proliferation, A2780
From the text: (§1) Selected human tumor and non-tumor cell lines {Jurkat (acute T cell leukemia), MOLT-4 (acute lymphoblastic leukemia), A549 (lung carcinoma), HT-29 (colorectal adenocarcinoma), PANC-1 (pancreas epithelioid carcinoma), A2780 (ovarian carcinoma), HeLa (cervix adenocarcinoma), MCF-7 (breast adenocarcinoma), SAOS-2 (osteosarcoma) and MRC-5 (normal lung fibroblasts)} were purchased from either ATCC (Manassas, VA, USA) or Sigma-Aldrich (St. Louis, MO, USA) and cultured according to the provider’s culture method guidelines. […] Cells in the maximum range of either 10 passages for primary cell line (MRC-5), or in the maximum range of 20 passages for cancer cell lines (Jurkat, MOLT-4, A549, HT-29, PANC-1, A2780, HeLa, MCF-7 and SAOS-2) and in an exponential growth phase were used for this study.
(§2) The WST-1 (Roche, Mannheim, Germany) reagent was used to determine the cytostatic effect of the test compounds. WST-1 is designed for the spectrophotometric quantification of cell proliferation, growth, viability and chemosensitivity in cell populations using a 96-well-plate format (Sigma, St. Louis, MO, USA). The principle of WST-1 is based on photometric detection of the reduction of tetrazolium salt to a colored formazan product. The cells were seeded at a previously established optimal density (30,000 Jurkat, 25,000 MOLT-4, 500 A549, 1500 HT-29, 2000 PANC-1, 5000 A2780, 500 HeLa, 1500 MCF-7, 2000 SAOS-2 and 2000 MRC-5 cells/well) in 100 µL of culture medium, and adherent cells were allowed to reattach overnight. Thereafter, the cells were treated with 100 µL of either corresponding alkaloids or doxorubicin stock solutions to obtain the desired concentrations and incubated in 5% CO2 at 37 °C. WST-1 reagent diluted 4-fold with PBS (50 µL) was added 48 h after treatment. Absorbance was measured after 3 h incubation with WST-1 at 440 nm. The measurements were performed in a Tecan Infinite M200 spectrometer (Tecan Group, Männedorf, Switzerland). All experiments were performed at least three times with triplicate measurements at each drug concentration per experiment. The viability was quantified as described previously according to the following formula: (%) viability = (Asample − Ablank)/(Acontrol − Ablank) × 100, where A is the absorbance of the employed WST-1 formazan measured at 440 nm. The viability of the treated cells was normalized to the viability of cells treated with 0.1% DMSO (Sigma-Aldrich) as a vehicle control.

[2] = target: T1, hBuChE (Homo sapiens, UniProt P06276); experiment: BuChE inhibition mechanism (Lineweaver-Burk kinetic analysis); assay type: biochemical; settings: for mechanism of inhibition of hBuChE: Lineweaver-Burk plot, Km and Vm decreased
Protocol: (§3) The antiproliferative effect of 1a–1m at 10 µM single-dose treatment regimen was assessed using WST-1 tetrazolium salt assay. […] Kinetic analysis of 1j and 1m was used for the determination of their inhibition pattern against both hAChE and hBuChE. […] The Km and Vm values were calculated from the Lineweaver-Burk plot.

[3] = test system: HeLa (cervix adenocarcinoma); experiment: WST-1 cytotoxicity assay, HeLa; assay type: cell-based; settings: Homo sapiens, c = 10 μM, 48 h, percent of proliferation of untreated control cells, read-out: Cell proliferation, HeLa
From the text: as §1, §2

[4] = target: T2, hAChE (Homo sapiens, UniProt P22303); experiment: AChE inhibition mechanism (Lineweaver-Burk kinetic analysis); assay type: biochemical; settings: Lineweaver-Burk plot; Km and Vm decreased
Protocol: as §3

[5] = test system: A549 (lung carcinoma); experiment: WST-1 cytotoxicity assay, A549; assay type: cell-based; settings: Homo sapiens, c = 10 μM, 48 h, percent of proliferation of untreated control cells, read-out: Cell proliferation, A549
From the text: as §1, §2

[6] = test system: HT-29 (colorectal adenocarcinoma); experiment: WST-1 cytotoxicity assay, HT-29; assay type: cell-based; settings: Homo sapiens, c = 10 μM, 48 h, percent of proliferation of untreated control cells, read-out: Cell proliferation, HT-29
From the text: as §1, §2

[7] = test system: Jurkat (acute T cell leukemia); experiment: WST-1 cytotoxicity assay, Jurkat; assay type: cell-based; settings: Homo sapiens, c = 10 μM, 48 h, percent of proliferation of untreated control cells
From the text: as §1, §2

[8] = test system: PANC-1 (pancreas epithelioid carcinoma); experiment: WST-1 cytotoxicity assay, PANC-1; assay type: cell-based; settings: Homo sapiens, c = 10 μM, 48 h, percent of proliferation of untreated control cells, read-out: Cell proliferation, PANC-1
From the text: as §1, §2

[9] = target: T2, hAChE; experiment: biochemical; assay type: biochemical; settings: for IC50: mean ± SEM of three independent measurements, each in triplicate
Protocol: (§4) The hAChE and hBuChE activities were determined using a modified method of Ellman with acetylthiocholine iodide (ATChI) and butyrylthiocholine iodide (BuTChI) as substrates, respectively.

[10] = target: T1, hBuChE; experiment: biochemical; assay type: biochemical
Protocol: as §4

[11] = test system: SAOS-2 (osteosarcoma); experiment: WST-1 cytotoxicity assay, SAOS-2; assay type: cell-based; settings: Homo sapiens, c = 10 μM, 48 h, percent of proliferation of untreated control cells, read-out: Cell proliferation, SAOS-2
From the text: as §1, §2

[12] = target: GSK-3β (Homo sapiens, UniProt P49841); experiment: GSK-3β assay (Kinase-Glo Kit); assay type: biochemical; settings: for inhibition at 10 µM: tested at 10 µM compound concentration, read-out: GSK-3β (% inhib.)
Protocol: The GSK-3β assay was performed by using Kinase-Glo Kit obtained from Promega (Promega Biotech Iberica, SL, Madrid, Spain) as described previously.

[13] = test system: MOLT-4 (acute lymphoblastic leukemia); experiment: WST-1 cytotoxicity assay, MOLT-4; assay type: cell-based; settings: Homo sapiens, c = 10 μM, 48 h, percent of proliferation of untreated control cells, read-out: Cell proliferation, MOLT-4
From the text: as §1, §2

[14] = in vitro; settings: for PAMPA-BBB Permeability (Pe) / Papp: PBS:EtOH (70:30) as solvent, mean ± SD of 2 independent experiments; for PAMPA-BBB prediction of penetration in the CNS: class from Pe; for Papp: pig, PAMPA, PAMPA-BBB Permeability (Pe)
Protocol: The PAMPA assay was performed as previously described.

[15] = test system: MRC-5 (normal lung fibroblasts); experiment: WST-1 cytotoxicity assay, MRC-5; assay type: cell-based; settings: Homo sapiens, MRC5; c = 10 μM, 48 h, percent of proliferation of untreated control cells; read-out: Cell proliferation, MRC-5
From the text: as §1, §2

[16] = test system: MCF-7 (breast adenocarcinoma); experiment: WST-1 cytotoxicity assay, MCF-7; assay type: cell-based; settings: Homo sapiens, MCF7; c = 10 μM, 48 h, percent of proliferation of untreated control cells; read-out: Cell proliferation, MCF-7
From the text: as §1, §2

[17] = test system: human cell lines (Jurkat, MOLT-4, A549, HT-29, PANC-1, A2780, HeLa, MCF-7, SAOS-2 and MRC-5); experiment: WST-1 antiproliferative screen, whole panel of tested human cell lines; assay type: cell-based; settings: 10 µM single-dose, 48 h of exposure
Protocol: as §3, with “plot. […]” for “plot.”
The WST-1 (Roche, Mannheim, Germany) reagent was used to determine the cytostatic effect of the test compounds. WST-1 is designed for the spectrophotometric quantification of cell proliferation, growth, viability and chemosensitivity in cell populations using a 96-well-plate format (Sigma, St. Louis, MO, USA). […] Absorbance was measured after 3 h incubation with WST-1 at 440 nm. […] The viability was quantified as described previously according to the following formula: (%) viability = (Asample − Ablank)/(Acontrol − Ablank) × 100, where A is the absorbance of the employed WST-1 formazan measured at 440 nm. […]

[18] = mean ± SEM of three independent measurements, each in triplicate, read-out: hBuChE IC50

T2 sequence (P22303 32-614): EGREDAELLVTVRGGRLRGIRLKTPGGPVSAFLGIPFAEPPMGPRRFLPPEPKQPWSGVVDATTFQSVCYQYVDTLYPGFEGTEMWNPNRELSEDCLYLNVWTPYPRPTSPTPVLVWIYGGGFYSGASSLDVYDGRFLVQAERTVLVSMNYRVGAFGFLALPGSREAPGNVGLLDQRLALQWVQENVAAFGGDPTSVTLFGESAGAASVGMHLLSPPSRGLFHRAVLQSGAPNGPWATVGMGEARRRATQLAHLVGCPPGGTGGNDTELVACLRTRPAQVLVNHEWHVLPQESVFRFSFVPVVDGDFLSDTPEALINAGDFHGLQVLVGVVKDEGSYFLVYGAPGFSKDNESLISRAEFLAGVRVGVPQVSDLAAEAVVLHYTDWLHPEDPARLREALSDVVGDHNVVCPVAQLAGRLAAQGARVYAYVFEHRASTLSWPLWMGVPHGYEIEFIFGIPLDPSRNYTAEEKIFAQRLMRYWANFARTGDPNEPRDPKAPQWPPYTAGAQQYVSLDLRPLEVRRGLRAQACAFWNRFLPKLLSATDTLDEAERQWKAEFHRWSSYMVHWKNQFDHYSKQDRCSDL
Sequence of GSK-3β (P49841 whole entry): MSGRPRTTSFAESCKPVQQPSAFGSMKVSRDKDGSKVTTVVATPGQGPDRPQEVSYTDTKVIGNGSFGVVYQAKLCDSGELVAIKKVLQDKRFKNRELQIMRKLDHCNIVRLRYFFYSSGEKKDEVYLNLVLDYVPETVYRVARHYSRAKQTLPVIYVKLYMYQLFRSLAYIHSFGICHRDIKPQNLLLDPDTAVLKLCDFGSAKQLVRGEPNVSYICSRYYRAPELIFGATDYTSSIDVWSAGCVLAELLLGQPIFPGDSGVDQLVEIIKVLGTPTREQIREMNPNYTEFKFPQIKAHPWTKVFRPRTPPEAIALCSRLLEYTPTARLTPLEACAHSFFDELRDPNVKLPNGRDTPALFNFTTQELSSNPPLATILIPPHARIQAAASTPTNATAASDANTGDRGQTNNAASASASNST
T1 sequence (P06276 29-602): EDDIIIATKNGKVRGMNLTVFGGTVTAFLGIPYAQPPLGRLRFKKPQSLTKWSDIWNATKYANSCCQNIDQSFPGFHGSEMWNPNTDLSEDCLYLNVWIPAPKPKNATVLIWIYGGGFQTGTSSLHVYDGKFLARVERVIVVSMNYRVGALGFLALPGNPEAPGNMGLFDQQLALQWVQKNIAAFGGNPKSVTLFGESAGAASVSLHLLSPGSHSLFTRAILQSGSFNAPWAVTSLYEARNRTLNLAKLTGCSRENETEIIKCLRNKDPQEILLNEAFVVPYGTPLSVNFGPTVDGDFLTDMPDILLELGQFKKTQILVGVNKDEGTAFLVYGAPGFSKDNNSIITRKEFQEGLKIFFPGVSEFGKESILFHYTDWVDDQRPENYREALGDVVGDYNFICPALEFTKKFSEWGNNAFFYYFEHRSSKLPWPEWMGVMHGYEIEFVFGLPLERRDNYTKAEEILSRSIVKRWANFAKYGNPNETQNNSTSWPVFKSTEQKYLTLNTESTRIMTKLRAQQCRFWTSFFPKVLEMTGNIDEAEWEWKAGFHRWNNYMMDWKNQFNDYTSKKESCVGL

Compound	activity at 10 µM [1]	mechanism of inhibition of hBuChE [2]	activity at 10 µM [3]	mechanism of inhibition of hAChE [4]	activity at 10 µM [5]	activity at 10 µM [6]	activity at 10 µM [7]	activity at 10 µM [8]	IC50 [9]	IC50 [10, 18]	activity at 10 µM [11]	inhibition at 10 µM [12]	viability at 10 µM [13]	PAMPA-BBB Permeability (Pe) [14]	PAMPA-BBB prediction of penetration in the CNS [14]	Papp [14]	activity at 10 µM [15]	activity at 10 µM [16]	other results
COC1C=CC23c4cc5c(cc4CN(CC2OC(=O)c2ccccc2C)C3C1)OCO5 (stereo not shown) [Compound 1j, 11-O-(2-Methylbenzoyl)haemanthamine]	129 ± 11%	mixed mechanism of inhibition	104 ± 4%	mixed mechanism of inhibition	96 ± 8%	98 ± 6%	95 ± 11%	95 ± 6%	18.2 ± 1.3 µM	6.6 ± 1.2 µM	97 ± 17%	15 ± 6%	91 ± 3%	5.8 ± 0.9 10^−6 cm s^−1	CNS+ (CNS(+): high BBB permeation predicted with Pe (10^−6 cm.s^−1) > 4.0)	> 4 ×10⁻⁶ cm/s	112 ± 9%	112 ± 3%	Ki ([2]; from Lineweaver-Burk kinetic analysis): 12.5 ± 0.45 µM; SI for hAChE [9]: 0.4; PAMPA-BBB prediction of penetration in the CNS ([14]; listed as 18j): CNS +
COC1C=CC23c4cc5c(cc4CN(CC2OC(=O)c2ccc([N+](=O)[O-])cc2)C3C1)OCO5 (stereo not shown) [Compound 1m, 11-O-(4-Nitrobenzoyl)haemanthamine]	86 ± 4%	mixed mechanism of inhibition	71 ± 1%	mixed mechanism of inhibition	74 ± 6%	73 ± 2%	69 ± 7%	71 ± 7%	14.7 ± 1.8 µM	> 500 µM	69 ± 4%	27 ± 9%	76 ± 12%	7.1 ± 0.3 10^−6 cm s^−1	CNS+ (CNS(+): high BBB permeation predicted with Pe (10^−6 cm.s^−1) > 4.0)	> 4 ×10⁻⁶ cm/s	61 ± 8%	62 ± 10%	IC50 ([12]; mean ± SEM of three independent measurements): 34.8 ± 0.01 µM; PAMPA-BBB prediction of penetration in the CNS ([14]; listed as 18m): CNS +
COC1C=CC23c4cc5c(cc4CN(CC2O)C3C1)OCO5 (stereo not shown) [Compound 1, Haemanthamine]	–	–	–	–	–	–	–	–	> 500 µM	–	–	–	–	–	–	–	–	–	toxicity against the tested human cell lines, in words [17]: potent cytotoxic and apoptotic effects; hAChE inhibition activity, in words ([9]; cholinesterase assay): completely inactive; IC50 [10]: > 500 µM; hBuChE inhibition activity, in words ([10]; cholinesterase assay): completely inactive
